In BindingDB's records for doi:10.1021/ja0727520 (University of California Berkeley, 2007):

How the values were obtained:
Experiment in all cases: Determination of Inhibitor Ki
Details in all cases: pH 7.4; 22 °C
[1] = target: T1, TYR_PHOSPHATASE_2 domain-containing protein (Mycobacterium tuberculosis (strain CDC 1551 / Oshkosh), UniProt P96830)
T1 sequence (P96830 whole entry): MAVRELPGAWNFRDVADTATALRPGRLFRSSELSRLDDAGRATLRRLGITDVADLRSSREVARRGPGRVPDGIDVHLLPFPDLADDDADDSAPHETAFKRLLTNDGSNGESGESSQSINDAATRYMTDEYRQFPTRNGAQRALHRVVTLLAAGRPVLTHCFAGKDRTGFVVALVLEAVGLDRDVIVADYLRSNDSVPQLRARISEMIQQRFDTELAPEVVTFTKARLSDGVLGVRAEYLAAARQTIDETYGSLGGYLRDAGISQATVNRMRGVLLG
Text: (§1) The initial rate data collected was used for determination of Ki values. For Ki determination, the kinetic values were obtained directly from nonlinear regression of substrate-velocity curves in the presence of various concentrations of inhibitor.

[2] = target: T2, Low molecular weight protein-tyrosine phosphatase A (Mycobacterium tuberculosis (strain ATCC 25618 / H37Rv), UniProt P9WIA1)
T2 sequence (P9WIA1 whole entry): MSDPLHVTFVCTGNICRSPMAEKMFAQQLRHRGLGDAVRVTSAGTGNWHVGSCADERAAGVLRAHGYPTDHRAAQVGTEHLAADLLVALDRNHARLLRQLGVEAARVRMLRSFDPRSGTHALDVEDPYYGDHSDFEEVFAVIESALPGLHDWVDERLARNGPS
Text: as §1

[3] = target: T3, Receptor-type tyrosine-protein phosphatase C (Homo sapiens, UniProt P08575)
T3 sequence (P08575 whole entry): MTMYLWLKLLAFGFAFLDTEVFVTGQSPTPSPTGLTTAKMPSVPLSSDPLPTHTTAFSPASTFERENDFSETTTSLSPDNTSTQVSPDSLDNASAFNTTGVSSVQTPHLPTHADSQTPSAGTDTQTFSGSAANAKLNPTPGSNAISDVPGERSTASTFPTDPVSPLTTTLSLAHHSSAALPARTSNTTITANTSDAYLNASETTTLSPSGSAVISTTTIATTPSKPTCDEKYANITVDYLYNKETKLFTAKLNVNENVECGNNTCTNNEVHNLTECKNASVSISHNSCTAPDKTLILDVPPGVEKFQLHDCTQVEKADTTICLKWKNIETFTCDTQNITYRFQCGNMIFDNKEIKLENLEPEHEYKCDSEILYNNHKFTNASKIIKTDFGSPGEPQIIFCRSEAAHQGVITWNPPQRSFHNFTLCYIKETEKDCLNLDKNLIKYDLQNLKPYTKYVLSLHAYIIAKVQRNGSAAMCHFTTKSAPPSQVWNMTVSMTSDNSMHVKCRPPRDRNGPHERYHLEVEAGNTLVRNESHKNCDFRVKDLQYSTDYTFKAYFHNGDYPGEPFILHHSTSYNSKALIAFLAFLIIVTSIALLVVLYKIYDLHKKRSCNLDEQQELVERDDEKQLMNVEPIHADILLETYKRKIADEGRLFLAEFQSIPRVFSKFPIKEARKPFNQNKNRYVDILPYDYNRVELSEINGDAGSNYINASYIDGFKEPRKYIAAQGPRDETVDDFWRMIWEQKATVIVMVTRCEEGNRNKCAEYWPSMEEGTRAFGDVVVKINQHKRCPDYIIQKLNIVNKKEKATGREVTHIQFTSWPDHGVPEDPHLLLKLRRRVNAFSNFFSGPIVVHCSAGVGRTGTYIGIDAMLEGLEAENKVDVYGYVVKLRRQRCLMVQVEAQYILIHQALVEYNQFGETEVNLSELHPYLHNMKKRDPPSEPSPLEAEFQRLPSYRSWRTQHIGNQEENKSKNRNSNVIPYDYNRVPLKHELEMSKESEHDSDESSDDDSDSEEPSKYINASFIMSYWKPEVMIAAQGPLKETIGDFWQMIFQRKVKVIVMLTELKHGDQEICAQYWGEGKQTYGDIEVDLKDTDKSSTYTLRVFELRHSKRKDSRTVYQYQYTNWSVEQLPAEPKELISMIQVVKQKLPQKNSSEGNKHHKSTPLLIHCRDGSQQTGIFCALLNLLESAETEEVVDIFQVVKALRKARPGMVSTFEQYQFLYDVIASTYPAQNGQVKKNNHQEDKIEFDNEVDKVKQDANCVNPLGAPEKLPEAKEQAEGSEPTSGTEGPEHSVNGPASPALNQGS
Text: as §1

[4] = target: Receptor-type tyrosine-protein phosphatase F (Homo sapiens, UniProt P10586)
Text: as §1

[5] = target: Dual specificity protein phosphatase 3 (Homo sapiens, UniProt P51452)
Text: as §1

[6] = target: T4, Tyrosine-protein phosphatase non-receptor type 2 (Homo sapiens, UniProt P17706)
T4 sequence (P17706 whole entry): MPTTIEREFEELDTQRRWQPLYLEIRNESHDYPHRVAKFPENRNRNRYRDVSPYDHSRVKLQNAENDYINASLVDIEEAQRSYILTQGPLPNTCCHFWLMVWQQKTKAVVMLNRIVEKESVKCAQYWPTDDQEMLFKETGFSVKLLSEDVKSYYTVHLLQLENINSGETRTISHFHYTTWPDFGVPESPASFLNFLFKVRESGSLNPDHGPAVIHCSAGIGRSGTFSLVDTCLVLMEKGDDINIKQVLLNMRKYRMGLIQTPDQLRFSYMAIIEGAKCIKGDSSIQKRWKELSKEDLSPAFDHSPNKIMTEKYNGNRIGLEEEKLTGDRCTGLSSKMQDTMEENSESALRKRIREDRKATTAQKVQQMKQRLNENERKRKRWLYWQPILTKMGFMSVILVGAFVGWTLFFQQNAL
Text: as §1

Dual specificity protein phosphatase 3, sequence (P51452 whole entry): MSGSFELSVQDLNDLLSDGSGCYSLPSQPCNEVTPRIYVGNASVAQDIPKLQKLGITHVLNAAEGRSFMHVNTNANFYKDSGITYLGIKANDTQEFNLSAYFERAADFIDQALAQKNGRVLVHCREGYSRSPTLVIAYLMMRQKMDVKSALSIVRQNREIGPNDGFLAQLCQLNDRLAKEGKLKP
Receptor-type tyrosine-protein phosphatase F, sequence (P10586 whole entry): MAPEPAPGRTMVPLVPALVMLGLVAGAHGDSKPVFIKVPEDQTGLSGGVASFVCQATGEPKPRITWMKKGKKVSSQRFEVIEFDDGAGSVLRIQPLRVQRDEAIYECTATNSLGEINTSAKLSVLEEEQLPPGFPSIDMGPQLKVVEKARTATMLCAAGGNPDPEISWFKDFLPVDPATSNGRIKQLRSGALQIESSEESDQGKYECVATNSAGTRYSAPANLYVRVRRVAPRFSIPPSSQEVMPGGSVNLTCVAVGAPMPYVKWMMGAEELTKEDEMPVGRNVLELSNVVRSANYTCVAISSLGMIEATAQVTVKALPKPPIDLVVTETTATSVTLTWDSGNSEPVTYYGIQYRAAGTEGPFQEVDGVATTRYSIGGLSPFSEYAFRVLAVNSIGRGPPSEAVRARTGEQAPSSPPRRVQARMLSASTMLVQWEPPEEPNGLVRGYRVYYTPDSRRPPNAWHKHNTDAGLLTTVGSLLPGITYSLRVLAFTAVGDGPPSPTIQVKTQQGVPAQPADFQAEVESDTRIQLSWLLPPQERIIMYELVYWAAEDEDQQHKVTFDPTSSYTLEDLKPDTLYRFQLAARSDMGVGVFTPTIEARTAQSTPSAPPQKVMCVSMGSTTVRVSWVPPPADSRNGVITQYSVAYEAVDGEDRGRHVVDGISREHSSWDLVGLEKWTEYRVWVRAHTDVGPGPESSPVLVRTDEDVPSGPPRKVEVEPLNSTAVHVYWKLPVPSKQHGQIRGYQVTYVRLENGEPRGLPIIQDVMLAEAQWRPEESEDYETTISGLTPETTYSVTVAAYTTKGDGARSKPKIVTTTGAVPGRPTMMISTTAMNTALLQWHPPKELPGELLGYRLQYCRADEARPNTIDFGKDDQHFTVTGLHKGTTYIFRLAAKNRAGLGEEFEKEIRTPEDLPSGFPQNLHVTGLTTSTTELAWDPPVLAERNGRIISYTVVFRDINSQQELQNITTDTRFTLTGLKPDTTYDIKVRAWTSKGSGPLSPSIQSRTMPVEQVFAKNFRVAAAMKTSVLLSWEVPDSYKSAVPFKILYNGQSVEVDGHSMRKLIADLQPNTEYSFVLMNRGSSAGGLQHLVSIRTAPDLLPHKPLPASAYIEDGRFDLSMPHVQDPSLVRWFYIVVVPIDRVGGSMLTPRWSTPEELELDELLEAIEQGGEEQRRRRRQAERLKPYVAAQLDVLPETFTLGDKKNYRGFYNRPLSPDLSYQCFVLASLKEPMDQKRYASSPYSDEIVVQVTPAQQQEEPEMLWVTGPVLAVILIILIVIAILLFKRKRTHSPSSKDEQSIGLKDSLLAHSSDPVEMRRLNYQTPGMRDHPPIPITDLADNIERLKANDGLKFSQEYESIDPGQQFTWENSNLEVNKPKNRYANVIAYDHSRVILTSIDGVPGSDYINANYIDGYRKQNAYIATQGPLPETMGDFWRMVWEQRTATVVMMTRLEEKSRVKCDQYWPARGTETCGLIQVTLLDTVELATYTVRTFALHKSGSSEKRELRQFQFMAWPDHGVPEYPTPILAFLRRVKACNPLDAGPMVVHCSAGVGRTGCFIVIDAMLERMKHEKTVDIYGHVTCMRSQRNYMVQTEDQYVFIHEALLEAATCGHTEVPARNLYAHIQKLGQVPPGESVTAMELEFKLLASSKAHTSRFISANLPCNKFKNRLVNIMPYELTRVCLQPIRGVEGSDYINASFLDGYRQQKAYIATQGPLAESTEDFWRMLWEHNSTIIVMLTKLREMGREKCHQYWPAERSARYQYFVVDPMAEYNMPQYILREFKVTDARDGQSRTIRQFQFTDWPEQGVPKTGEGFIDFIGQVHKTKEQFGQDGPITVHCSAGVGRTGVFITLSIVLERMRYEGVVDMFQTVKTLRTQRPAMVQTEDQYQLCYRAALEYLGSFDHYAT

CC(C)c1cc(-c2cccc(C(F)(F)F)c2)ccc1-c1cc(C(=O)O)no1 [5-[2-(propan-2-yl)-4-[3-(trifluoromethyl)phenyl]phenyl]-1,2-oxazole-3-carboxylic acid]
Ki [1]: 850 nM

O=C(O)c1cc(-c2ccc(-c3ccc(F)c(C(F)(F)F)c3)cc2C2CCCCC2)on1 [5-{2-cyclohexyl-4-[4-fluoro-3-(trifluoromethyl)phenyl]phenyl}-1,2-oxazole-3-carboxylic acid]
Ki [2]: > 50 µM
Ki [3]: 7.7 µM
Ki [4]: 21.4 µM
Ki [5]: > 50 µM
Ki [6]: > 50 µM

O=C(O)c1cc(-c2ccc(-c3cccc(C(F)(F)F)c3)cc2)on1 [5-{4-[3-(trifluoromethyl)phenyl]phenyl}-1,2-oxazole-3-carboxylic acid]
Ki [1]: 2500 nM

O=C1CC(c2ccc(-c3cccc(C(F)(F)F)c3)cc2)S(=O)(=O)N1 (centres undefined) [5-{4-[3-(trifluoromethyl)phenyl]phenyl}-1,2-thiazolidine-1,1,3-trione]
Ki [1]: 8800 nM

CC(C)c1cc(-c2ccc(F)c(C(F)(F)F)c2)ccc1-c1cc(C(=O)O)no1 [5-{4-[4-fluoro-3-(trifluoromethyl)phenyl]-2-(propan-2-yl)phenyl}-1,2-oxazole-3-carboxylic acid]
Ki [1]: 500 nM
